Test results reported in article PMC11020070, “Discovery of Protease-Activated Receptor 4 (PAR4)-Tethered Ligand Antagonists Using Ultralarge Virtual Screening” (ACS Pharmacology & Translational Science, 2024).
“Also recorded” adds a separate entry of the source.

What was measured:
[1] = target: T1, GPVI receptor (Homo sapiens, UniProt Q9HCN6); experiment: Off-target control: convulxin activation of GPVI receptor in human platelets; type: cell-based; conditions: 10 μM compound, convulxin 3.16 nM
T1 construct: endogenous in cells; host or cells: washed human platelets
T1 sequence (Q9HCN6 21-339): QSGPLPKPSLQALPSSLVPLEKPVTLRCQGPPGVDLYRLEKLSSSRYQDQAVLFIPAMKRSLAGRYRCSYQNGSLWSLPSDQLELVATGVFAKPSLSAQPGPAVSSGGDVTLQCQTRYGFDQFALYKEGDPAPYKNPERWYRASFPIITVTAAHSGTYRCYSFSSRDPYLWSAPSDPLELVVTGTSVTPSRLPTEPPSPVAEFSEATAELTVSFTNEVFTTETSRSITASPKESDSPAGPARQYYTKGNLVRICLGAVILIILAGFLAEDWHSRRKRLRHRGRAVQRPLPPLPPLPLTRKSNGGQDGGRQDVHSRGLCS
T1 sequence (P30273 19-86 partner): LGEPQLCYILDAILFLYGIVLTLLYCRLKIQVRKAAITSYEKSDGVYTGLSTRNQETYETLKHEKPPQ
Protocol: The hit compound (7) was tested against several platelet activators including targeting PAR1, PAR4, and GPVI collagen receptors (Figure 5). […] Taken together, the inhibition of the off-target GPVI and the divergence of the inhibition of the γ-thrombin readouts PAC1 vs P-selectin are consistent with the C5 compound not being a specific antagonist of PAR4.
Figure 5 (A) Off-target controls: % of vehicle control for γ-thrombin (100 nM), PAR4 component of α-thrombin (5 nM α-thrombin +1 μM vorapaxar), PAR4 agonist peptide 200 μM AYPGKF, 200 μM PAR1 agonist peptide SFLLRN, and GPVI agonist convulxin 3.16 nM.
Compounds were screened for inhibition activity against human PAR4 using 100 nM γ-thrombin or 200 μM PAR4-AP in a single-point assay (10 μM test compound). Dose–response curves were conducted for active compounds. Active compounds were also assessed at a single concentration of 10 μM against other agonists, including the PAR4 component of α-thrombin (5 nM α-thrombin +1 μM vorapaxar), the PAR1 agonist peptide (20 μM SFFLRN), and the GPVI receptor agonist convulxin (3 nM).

[2] = target: thrombin (Homo sapiens, UniProt P00734); experiment: Fluorometric assay of in vitro thrombin activity; type: biochemical
From the text: The enamine-purchased 7 compound was confirmed using mass spectrometry and ^1H NMR (data not shown) and then was independently resynthesized at Vanderbilt University (VU).
(1 picture or pasted object on this page, not shown here)

[3] = target: T2, PAR4 (Homo sapiens, UniProt Q96RI0); experiment: Schild analysis, progressive fold-shift against γ-thrombin in platelets; type: cell-based; parameters: endogenous in cells; host or cells: platelets; conditions: for mode of inhibition: against γ-thrombin activation; for Schild plot slope m: slope of linear regression, γ-thrombin, 20 min pretreatment
T2 sequence (Q96RI0 18-385): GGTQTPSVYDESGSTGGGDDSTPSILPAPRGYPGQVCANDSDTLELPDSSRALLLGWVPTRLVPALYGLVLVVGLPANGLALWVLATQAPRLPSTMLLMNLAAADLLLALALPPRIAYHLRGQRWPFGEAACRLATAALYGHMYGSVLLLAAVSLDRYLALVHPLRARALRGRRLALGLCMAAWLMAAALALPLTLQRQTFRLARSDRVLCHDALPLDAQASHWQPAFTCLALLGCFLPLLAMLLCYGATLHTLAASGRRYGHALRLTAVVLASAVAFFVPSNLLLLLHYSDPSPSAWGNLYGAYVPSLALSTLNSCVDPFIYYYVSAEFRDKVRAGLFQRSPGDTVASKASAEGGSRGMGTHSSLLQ
Protocol: A Schild analysis was performed on compounds 12 and 31 to determine the mode of inhibition of these compounds.
Figure 7 Schild analysis progressive fold-shift experiments. (A) Platelets were pretreated with increasing concentrations of each antagonist for 20 min prior to activation with increasing concentrations of γ-thrombin. (B) Logarithmic transformation of the dose ratio plotted versus the logarithm of compound concentration. m = slope of linear regression. TEXT PRINTED IN THE PICTURE: (B) 12: m = 0.99 | (D) 31: m = 0.95

[4] = target: T3, PAR1 (Homo sapiens, UniProt P25116); experiment: PAR1 component of α-thrombin activation (α-thrombin + BMS-3) in platelets; type: cell-based; conditions: read-out: PAR1 IC50 (Figure 6D)
T3 construct: endogenous in cells; host or cells: platelets
T3 sequence (P25116 22-425): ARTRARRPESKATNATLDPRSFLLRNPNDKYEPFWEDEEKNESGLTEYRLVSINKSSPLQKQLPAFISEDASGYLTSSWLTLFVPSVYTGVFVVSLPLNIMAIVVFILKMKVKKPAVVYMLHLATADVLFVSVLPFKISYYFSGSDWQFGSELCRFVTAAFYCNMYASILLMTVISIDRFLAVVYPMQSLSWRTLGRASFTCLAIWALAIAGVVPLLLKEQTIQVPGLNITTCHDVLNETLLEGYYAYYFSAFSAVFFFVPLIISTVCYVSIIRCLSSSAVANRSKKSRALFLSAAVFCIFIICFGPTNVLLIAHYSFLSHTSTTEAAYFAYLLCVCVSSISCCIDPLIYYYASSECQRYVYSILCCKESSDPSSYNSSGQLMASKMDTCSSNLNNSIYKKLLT
From the text: Figure 6 (A) Distribution of IC50 values for the inhibition of human PAR4 vs mouse PAR4. Red indicates the 2 compounds highlighted in panels (B–D). (B) Structures of exemplar compounds. (C) Concentration–response curves for human vs mouse PAR4. (D) Concentration–response curves for the inhibition of pharmacologically defined α-thrombin components for PAR1 (α-thrombin + BMS-3) vs PAR4 (α-thrombin + vorapaxar).
α-thrombin activates both PAR1 and PAR4, and the individual PAR1 or PAR4 component can be isolated pharmacologically. […] With 20 substitutions between PAR1 and PAR4 within 5 Å of the predicted 31 binding site, the basis for these selectivity differences is not known (Figure S4). As we continue to probe for a selective PAR4 antagonist, mutagenesis of individual residues will be conducted.

SMILES	inhibition of convulxin activation of GPVI receptor [1]	direct inhibition of thrombin enzymatic activity [2]	mode of inhibition [3]	Schild plot slope m [3]	IC50 [4]
Cc1nc(NC(=O)c2cc(-c3ccccc3)n(-c3ccccc3)n2)n[nH]1 [Compound 7]	did not inhibit	do not inhibition; also recorded: failed to directly inhibit			
Cc1cc(C(=O)Nc2n[nH]c(OC(F)F)n2)nn1-c1ccccc1 [Compound 9]		do not inhibition			
Cn1nc(C(=O)Nc2n[nH]c(-c3c(F)cccc3F)n2)cc1C1CC1 [Compound 12]			competitive	0.99	5.81 µM
O=C(Nc1n[nH]c(-c2ccc(F)cc2F)n1)c1nn(-c2ccccc2)c2c1CCCC2 [Compound 31]			competitive	0.95	1.51 µM
